Measured values reported in BindingDB's records for PubMed 34726055 (Central University of Punjab, 2022).

Biological target: Pyruvate kinase PKLR (Homo sapiens) (UniProt P30613)
Assay: Inhibition of human erythrocytes pyruvate kinase

Chain of Pyruvate kinase PKLR (Homo sapiens) (P30613 whole entry, looked up): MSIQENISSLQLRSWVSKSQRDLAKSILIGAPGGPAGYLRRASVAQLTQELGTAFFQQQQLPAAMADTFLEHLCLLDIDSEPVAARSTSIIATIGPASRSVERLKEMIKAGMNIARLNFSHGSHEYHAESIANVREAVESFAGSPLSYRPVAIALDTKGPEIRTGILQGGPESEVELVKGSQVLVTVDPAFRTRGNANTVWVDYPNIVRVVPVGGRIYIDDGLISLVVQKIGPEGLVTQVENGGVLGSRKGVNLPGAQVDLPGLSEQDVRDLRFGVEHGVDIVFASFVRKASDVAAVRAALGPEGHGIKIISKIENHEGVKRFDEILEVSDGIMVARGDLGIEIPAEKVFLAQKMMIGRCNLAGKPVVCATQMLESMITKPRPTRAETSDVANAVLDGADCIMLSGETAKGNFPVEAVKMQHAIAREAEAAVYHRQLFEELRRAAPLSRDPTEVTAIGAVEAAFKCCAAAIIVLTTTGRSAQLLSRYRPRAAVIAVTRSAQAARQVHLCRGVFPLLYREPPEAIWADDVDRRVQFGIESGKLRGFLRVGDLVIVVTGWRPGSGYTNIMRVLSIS

O=C(O)c1ccc(SC2=NS(=O)(=O)c3ccccc32)cc1 showed an IC50 of 8 µM.
